For this assay, the system named is P. aeruginosa 26. In words: In vitro antibacterial activity (MIC) by two-fold agar-plate dilution method. The format is cell-based. The settings on record: Pseudomonas aeruginosa, HI-agar, 37° C., 20 hours, read-out: MIC (minimal inhibitory concentration). Here is the method: Now in order to show the utility of the object compound [I], the test data on MIC (minimal inhibitory concentration) of representative compound [I] of this invention is shown in the following.
In vitro antibacterial activity was determined by the two-fold agar-plate dilution method as described below.
One loopful of an overnight culture of each test strain in Trypticase-soy broth (10^8 viable cells per ml) was streaked on heart infusion agar (HI-agar) containing graded concentrations of representative test compound, and the minimal inhibitory concentration (MIC) was expressed in terms of μg/ml after incubation at 37° C. for 20 hours.

In brackets after ≈: the same amount, converted by molar mass.

As to `CO/N=C(\C(=O)N[C@@H]1C(=O)N2C(C(=O)[O-])=C(C[n+]3ccc(N)n3CCO)CS[C@H]12)c1csc(N)n1` [Test Compound (1), 7β-[2-(2-Aminothiazol-4-yl)-2-methoxyiminoacetamido]-3-[3-amino-2-(2-hydroxyethyl)-1-pyrazolio]methyl-3-cephem-4-carboxylate (syn isomer)], the MIC worked out at 0.39 mg/L (≈ 0.746 µM).
